Results taken from publication PMC9856672, “SGC-CAMKK2-1: A Chemical Probe for CAMKK2” (Cells, 2023).

What was measured:
MAP4K2 = biological target: T1, MAP4K2 (Homo sapiens, UniProt Q12851); assay: KINOMEscan at 1 μM, MAP4K2; assay type: binding; details: 1000 nM, read-out: Percent Control
T1 construct: purchased Eurofins DiscoverX KINOMEscan
Excerpt: (§1) Supplement cells-12-00287-s001.zip/File S2. KinomeScan data for the CAMKK2 probe and negative control.xlsx, sheet "SGC-CAMKK2-1N" | column: Percent Control

PKMYT1 = biological target: T2, PKMYT1 (Homo sapiens, UniProt Q99640); assay: KINOMEscan at 1 μM, PKMYT1; assay type: binding; details: 1000 nM, read-out: Percent Control
T2 construct: purchased Eurofins DiscoverX KINOMEscan
Excerpt: as §1

CAMK1 = biological target: T3, CAMK1 (Homo sapiens, UniProt Q14012); assay: KINOMEscan at 1 μM, CAMK1; assay type: binding; details: 1000 nM, read-out: Percent Control
T3 construct: purchased Eurofins DiscoverX KINOMEscan
Excerpt: as §1

TNIK = biological target: T4, TNIK (Homo sapiens, UniProt Q9UKE5); assay: KINOMEscan at 1 μM, TNIK; assay type: binding; details: 1000 nM, read-out: Percent Control
T4 construct: purchased Eurofins DiscoverX KINOMEscan
Excerpt: as §1

PKN2 = biological target: T5, PKN2 (Homo sapiens, UniProt Q16513); assay: KINOMEscan at 1 μM, PKN2; assay type: binding; details: 1000 nM, read-out: Percent Control
T5 construct: purchased Eurofins DiscoverX KINOMEscan
Excerpt: as §1

PLK4 = biological target: T6, PLK4 (Homo sapiens, UniProt O00444); assay: KINOMEscan binding assay at 1 μM, PLK4; details: Compound Concentration 1000 nM; read-out: Percent Control
T6 construct: purchased Eurofins DiscoverX KINOMEscan
Excerpt: as §1

PHKG1 = biological target: T7, PHKG1 (Homo sapiens, UniProt Q16816); assay: KINOMEscan at 1 μM, PHKG1; assay type: binding; details: 1000 nM, read-out: Percent Control
T7 construct: purchased Eurofins DiscoverX KINOMEscan
Excerpt: as §1

PRP4 = biological target: T8, PRP4 (Homo sapiens, UniProt Q13523); assay: KINOMEscan binding assay at 1 μM, PRP4; details: Compound Concentration 1000 nM; read-out: Percent Control
T8 construct: purchased Eurofins DiscoverX KINOMEscan
Excerpt: as §1

CDK9 = biological target: T9, CDK9 (Homo sapiens, UniProt P50750); assay: KINOMEscan at 1 μM, CDK9; assay type: binding; details: 1000 nM, read-out: Percent Control
T9 construct: purchased Eurofins DiscoverX KINOMEscan
Excerpt: as §1

PRKD1 = biological target: T10, PRKD1 (Homo sapiens, UniProt Q15139); assay: KINOMEscan binding assay at 1 μM, PRKD1; details: Compound Concentration 1000 nM; read-out: Percent Control
T10 construct: purchased Eurofins DiscoverX KINOMEscan
Excerpt: as §1

PHKG2 = biological target: T11, PHKG2 (Homo sapiens, UniProt P15735); assay: KINOMEscan at 1 μM, PHKG2; assay type: binding; details: 1000 nM, read-out: Percent Control
T11 construct: purchased Eurofins DiscoverX KINOMEscan
Excerpt: as §1

MARK3 = biological target: T12, MARK3 (Homo sapiens, UniProt P27448); assay: KINOMEscan at 1 μM, MARK3; assay type: binding; details: 1000 nM, read-out: Percent Control
T12 construct: purchased Eurofins DiscoverX KINOMEscan
Excerpt: as §1

TNK2 = biological target: T13, TNK2 (Homo sapiens, UniProt Q07912); assay: KINOMEscan at 1 μM, TNK2; assay type: binding; details: 1000 nM, read-out: Percent Control
T13 construct: purchased Eurofins DiscoverX KINOMEscan
Excerpt: as §1

RAF1 = biological target: T14, RAF1 (Homo sapiens, UniProt P04049); assay: KINOMEscan at 1 μM, RAF1; assay type: binding; details: 1000 nM, read-out: Percent Control
T14 construct: purchased Eurofins DiscoverX KINOMEscan
Excerpt: as §1

FGFR1 = biological target: T15, FGFR1 (Homo sapiens, UniProt P11362); assay: KINOMEscan binding assay at 1 μM, FGFR1; details: Compound Concentration 1000 nM; read-out: Percent Control
T15 construct: purchased Eurofins DiscoverX KINOMEscan
Excerpt: as §1

PRKR = biological target: T16, PRKR (Homo sapiens, UniProt P19525); assay: KINOMEscan at 1 μM, PRKR; assay type: binding; details: 1000 nM, read-out: Percent Control
T16 construct: purchased Eurofins DiscoverX KINOMEscan
Excerpt: as §1

ZAP70 = biological target: T17, ZAP70 (Homo sapiens, UniProt P43403); assay: KINOMEscan at 1 μM, ZAP70; assay type: binding; details: 1000 nM, read-out: Percent Control
T17 construct: purchased Eurofins DiscoverX KINOMEscan
Excerpt: as §1

[1] = biological target: T18, EGFR(L747-E749del, A750P) (Homo sapiens, UniProt P00533, A750P/DEL747-749); assay: KINOMEscan binding assay at 1 μM, EGFR(L747-E749del, A750P); details: Compound Concentration 1000 nM; read-out: Percent Control
T18 construct: purchased Eurofins DiscoverX KINOMEscan
Excerpt: as §1

ADCK4 = biological target: T19, ADCK4 (Homo sapiens, UniProt Q96D53); assay: KINOMEscan at 1 μM, ADCK4; assay type: binding; details: 1000 nM, read-out: Percent Control
T19 construct: purchased Eurofins DiscoverX KINOMEscan
Excerpt: as §1

[2] = biological target: T20, RSK3(Kin.Dom.2-C-terminal) (Homo sapiens, UniProt Q15349); assay: KINOMEscan at 1 μM, RSK3(Kin.Dom.2-C-terminal); assay type: binding; details: 1000 nM, read-out: Percent Control
T20 construct: RSK3(Kin.Dom.2-C-terminal); purchased Eurofins DiscoverX KINOMEscan
Excerpt: as §1

GSK3A = biological target: T21, GSK3A (Homo sapiens, UniProt P49840); assay: KINOMEscan 1 μM, GSK3A; assay type: binding; details: 1000 nM; Entrez GSK3A; read-out: Percent Control
T21 construct: purchased Eurofins DiscoverX KINOMEscan
Excerpt: (§2) Supplement cells-12-00287-s001.zip/File S2. KinomeScan data for the CAMKK2 probe and negative control.xlsx, sheet "SGC-CAMKK2-1" | column: Percent Control

[3] = biological target: T22, ABL1(F317I)-nonphosphorylated (Homo sapiens, UniProt P00519, F317I); assay: KINOMEscan 1 μM, ABL1(F317I)-nonphosphorylated; assay type: binding; details: 1000 nM; Entrez ABL1; read-out: Percent Control
T22 construct: purchased Eurofins DiscoverX KINOMEscan
Excerpt: as §2

FLT3 = biological target: T23, FLT3 (Homo sapiens, UniProt P36888); assay: KINOMEscan 1 μM, FLT3; assay type: binding; details: 1000 nM; Entrez FLT3; read-out: Percent Control
T23 construct: purchased Eurofins DiscoverX KINOMEscan
Excerpt: as §2

PRKCD = biological target: T24, PRKCD (Homo sapiens, UniProt Q05655); assay: DiscoverX KINOMEscan binding assay at 1 μM, PRKCD; details: Compound Concentration 1000 nM, read-out: Percent Control
T24 construct: purchased Eurofins DiscoverX KINOMEscan
Excerpt: as §2

EPHA6 = biological target: T25, EPHA6 (Homo sapiens, UniProt Q9UF33); assay: KINOMEscan 1 μM, EPHA6; assay type: binding; details: 1000 nM; Entrez EPHA6; read-out: Percent Control
T25 construct: purchased Eurofins DiscoverX KINOMEscan
Excerpt: as §2

YANK1 = biological target: T26, YANK1 (Homo sapiens, UniProt Q8WU08); assay: DiscoverX KINOMEscan binding assay at 1 μM, YANK1; details: YANK1 (STK32A); Compound Concentration 1000 nM; read-out: Percent Control
T26 construct: purchased Eurofins DiscoverX KINOMEscan
Excerpt: as §2

[4] = biological target: T27, RPS6KA5(Kin.Dom.2-C-terminal) (Homo sapiens, UniProt O75582); assay: DiscoverX KINOMEscan binding assay at 1 μM, RPS6KA5(Kin.Dom.2-C-terminal); details: Compound Concentration 1000 nM, read-out: Percent Control
T27 construct: RPS6KA5(Kin.Dom.2-C-terminal); purchased Eurofins DiscoverX KINOMEscan
Excerpt: as §2

[5] = biological target: T28, JAK1(JH1domain-catalytic) (Homo sapiens, UniProt P23458); assay: KINOMEscan 1 μM, JAK1(JH1domain-catalytic); assay type: binding; details: 1000 nM; Entrez JAK1; read-out: Percent Control
T28 construct: JAK1(JH1domain-catalytic); purchased Eurofins DiscoverX KINOMEscan
Excerpt: as §2

[6] = Single dose IP pharmacokinetic study in mice; assay type: in vivo, CD-1 mice; details: mouse, 10 mg/kg IP, plasma at 0.5, 1, 3, 8 h
Protocol: CD-1 mice with weights 23–25 g were purchased from Charles River Laboratories.
The animal experiments were performed at Alliance Pharma (Malvern, PA, USA) in accordance with the guide for the care and use of laboratory animals. Alliance Pharma is accredited by the Association for Assessment and Accreditation of Laboratory Animal Care (AAALAC).
The test compounds were dissolved in DMSO and then diluted to the appropriate concentration with the vehicle. For formulation we targeted the minimal amount of DMSO that could be used in combination with a formulation composed of 0.5% HPMC/0.2% Polysorbate 80. […] Blood was collected at t = 0.5, 1, 3, and 8 h and immediately spun for 3 min, the plasma was collected, and compound levels were quantified with HPLC/MS. The raw data are available in the Supplemental Information.
With the probe molecule having favorable selectivity and potency in vitro and in a cellular context, we next wanted to determine its suitability for in vivo experiments. SGC-CAMKK2-1 (5) was progressed to a single dose mouse intraperitoneal (I.P) experiment.

T8 sequence (Q13523 whole entry): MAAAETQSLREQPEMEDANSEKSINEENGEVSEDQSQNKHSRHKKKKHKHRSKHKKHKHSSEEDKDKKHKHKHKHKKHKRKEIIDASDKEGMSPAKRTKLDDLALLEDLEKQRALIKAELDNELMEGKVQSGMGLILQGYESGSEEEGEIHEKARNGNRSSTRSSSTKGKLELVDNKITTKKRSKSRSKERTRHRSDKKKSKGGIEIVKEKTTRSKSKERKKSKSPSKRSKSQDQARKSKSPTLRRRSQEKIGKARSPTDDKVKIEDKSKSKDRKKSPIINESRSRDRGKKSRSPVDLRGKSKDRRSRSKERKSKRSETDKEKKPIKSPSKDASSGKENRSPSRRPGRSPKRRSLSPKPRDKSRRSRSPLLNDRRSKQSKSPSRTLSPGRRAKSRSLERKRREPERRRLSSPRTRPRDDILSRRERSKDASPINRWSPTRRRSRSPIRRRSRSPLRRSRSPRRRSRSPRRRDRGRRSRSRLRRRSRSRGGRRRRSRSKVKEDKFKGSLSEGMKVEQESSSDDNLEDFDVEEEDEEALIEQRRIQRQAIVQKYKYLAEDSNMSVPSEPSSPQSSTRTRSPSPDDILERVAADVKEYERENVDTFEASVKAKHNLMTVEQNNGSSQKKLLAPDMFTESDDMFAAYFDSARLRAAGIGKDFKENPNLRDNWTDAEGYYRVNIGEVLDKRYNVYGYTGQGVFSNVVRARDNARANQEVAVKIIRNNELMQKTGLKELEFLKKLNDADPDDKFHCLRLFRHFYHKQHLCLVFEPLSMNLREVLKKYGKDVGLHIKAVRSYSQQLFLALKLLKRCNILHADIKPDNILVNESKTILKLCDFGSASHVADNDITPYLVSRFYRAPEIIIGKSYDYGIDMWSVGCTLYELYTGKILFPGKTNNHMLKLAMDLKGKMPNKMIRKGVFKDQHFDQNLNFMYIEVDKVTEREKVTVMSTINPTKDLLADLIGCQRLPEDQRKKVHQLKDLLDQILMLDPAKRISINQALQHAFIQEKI
T7 sequence (Q16816 whole entry): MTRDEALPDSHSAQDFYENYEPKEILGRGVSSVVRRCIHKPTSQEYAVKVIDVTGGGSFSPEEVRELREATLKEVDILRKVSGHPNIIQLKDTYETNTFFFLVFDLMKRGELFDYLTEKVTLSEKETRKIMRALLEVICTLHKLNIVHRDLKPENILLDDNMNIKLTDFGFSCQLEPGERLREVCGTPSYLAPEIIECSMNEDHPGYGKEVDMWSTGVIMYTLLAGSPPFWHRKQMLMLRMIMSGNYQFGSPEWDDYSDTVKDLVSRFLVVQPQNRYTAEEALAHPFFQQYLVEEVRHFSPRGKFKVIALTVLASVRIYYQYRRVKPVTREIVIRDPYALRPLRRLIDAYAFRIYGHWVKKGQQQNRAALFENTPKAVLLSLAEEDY
T6 sequence (O00444 whole entry): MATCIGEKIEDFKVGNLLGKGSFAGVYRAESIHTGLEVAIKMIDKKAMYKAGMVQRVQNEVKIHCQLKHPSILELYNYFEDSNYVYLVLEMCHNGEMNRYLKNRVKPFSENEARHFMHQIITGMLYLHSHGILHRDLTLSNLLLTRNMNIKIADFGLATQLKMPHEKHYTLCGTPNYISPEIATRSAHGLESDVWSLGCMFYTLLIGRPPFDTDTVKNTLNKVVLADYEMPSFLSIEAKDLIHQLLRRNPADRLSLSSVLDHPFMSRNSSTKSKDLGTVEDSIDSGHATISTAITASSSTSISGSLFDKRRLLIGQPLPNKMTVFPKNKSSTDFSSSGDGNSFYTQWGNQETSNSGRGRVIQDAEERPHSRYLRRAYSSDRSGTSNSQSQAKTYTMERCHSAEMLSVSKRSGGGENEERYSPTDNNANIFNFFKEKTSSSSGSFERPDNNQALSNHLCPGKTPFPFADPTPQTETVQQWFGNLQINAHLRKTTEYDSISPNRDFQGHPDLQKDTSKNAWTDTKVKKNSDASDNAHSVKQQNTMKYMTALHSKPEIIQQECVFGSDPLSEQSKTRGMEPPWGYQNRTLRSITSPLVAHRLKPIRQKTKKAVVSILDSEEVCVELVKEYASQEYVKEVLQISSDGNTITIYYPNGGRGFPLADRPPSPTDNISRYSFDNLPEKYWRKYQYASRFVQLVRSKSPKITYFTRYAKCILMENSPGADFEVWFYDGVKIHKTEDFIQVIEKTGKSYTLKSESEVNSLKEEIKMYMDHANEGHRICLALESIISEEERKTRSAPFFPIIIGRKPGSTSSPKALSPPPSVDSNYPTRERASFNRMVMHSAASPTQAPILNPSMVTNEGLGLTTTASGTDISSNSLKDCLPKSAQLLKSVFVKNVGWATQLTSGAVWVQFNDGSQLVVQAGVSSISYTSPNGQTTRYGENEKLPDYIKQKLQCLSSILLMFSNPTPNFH
T17 sequence (P43403 whole entry): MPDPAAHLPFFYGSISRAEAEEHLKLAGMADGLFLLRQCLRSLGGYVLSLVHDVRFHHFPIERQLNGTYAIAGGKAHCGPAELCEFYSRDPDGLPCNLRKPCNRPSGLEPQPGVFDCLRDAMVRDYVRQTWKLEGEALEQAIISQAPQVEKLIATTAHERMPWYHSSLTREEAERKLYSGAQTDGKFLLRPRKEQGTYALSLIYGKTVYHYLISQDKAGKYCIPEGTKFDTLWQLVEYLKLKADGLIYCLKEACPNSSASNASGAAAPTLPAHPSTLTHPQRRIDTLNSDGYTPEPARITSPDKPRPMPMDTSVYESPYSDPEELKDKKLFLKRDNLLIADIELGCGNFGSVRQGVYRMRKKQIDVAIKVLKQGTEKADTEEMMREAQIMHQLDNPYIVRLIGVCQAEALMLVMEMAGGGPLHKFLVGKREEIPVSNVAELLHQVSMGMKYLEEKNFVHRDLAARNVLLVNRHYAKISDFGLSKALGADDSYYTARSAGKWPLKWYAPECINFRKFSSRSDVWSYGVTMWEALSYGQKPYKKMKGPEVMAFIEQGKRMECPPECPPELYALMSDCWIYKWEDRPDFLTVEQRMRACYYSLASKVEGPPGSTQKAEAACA
T12 sequence (P27448 whole entry): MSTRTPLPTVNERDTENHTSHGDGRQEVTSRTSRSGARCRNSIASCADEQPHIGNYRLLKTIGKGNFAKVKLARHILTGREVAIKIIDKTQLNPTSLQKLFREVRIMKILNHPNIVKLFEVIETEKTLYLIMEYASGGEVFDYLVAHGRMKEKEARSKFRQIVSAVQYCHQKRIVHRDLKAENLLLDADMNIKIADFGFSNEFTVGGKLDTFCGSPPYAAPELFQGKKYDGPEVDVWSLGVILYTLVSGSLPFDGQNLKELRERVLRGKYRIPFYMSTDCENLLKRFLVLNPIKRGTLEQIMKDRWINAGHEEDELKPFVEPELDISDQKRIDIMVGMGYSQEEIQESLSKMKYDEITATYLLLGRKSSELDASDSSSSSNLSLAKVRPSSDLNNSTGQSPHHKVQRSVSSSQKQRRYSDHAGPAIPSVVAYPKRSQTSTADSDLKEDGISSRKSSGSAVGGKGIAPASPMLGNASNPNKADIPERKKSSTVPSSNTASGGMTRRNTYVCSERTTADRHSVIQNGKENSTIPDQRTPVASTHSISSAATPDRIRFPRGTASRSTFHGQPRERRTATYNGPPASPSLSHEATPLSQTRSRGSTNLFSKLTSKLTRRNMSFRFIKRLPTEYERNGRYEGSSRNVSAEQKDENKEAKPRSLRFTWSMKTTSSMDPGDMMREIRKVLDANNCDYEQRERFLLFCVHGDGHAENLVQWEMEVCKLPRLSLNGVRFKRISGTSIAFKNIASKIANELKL
T9 sequence (P50750 whole entry): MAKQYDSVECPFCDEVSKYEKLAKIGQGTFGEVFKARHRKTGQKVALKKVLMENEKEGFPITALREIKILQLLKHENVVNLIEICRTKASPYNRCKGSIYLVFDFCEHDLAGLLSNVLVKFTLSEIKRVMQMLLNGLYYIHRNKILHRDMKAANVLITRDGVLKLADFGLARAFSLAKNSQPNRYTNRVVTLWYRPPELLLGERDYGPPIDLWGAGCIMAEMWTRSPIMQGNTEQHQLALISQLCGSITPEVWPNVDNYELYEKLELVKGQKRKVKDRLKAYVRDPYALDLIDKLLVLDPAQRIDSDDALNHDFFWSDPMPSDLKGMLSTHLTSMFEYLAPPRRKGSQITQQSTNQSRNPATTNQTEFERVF
T10 sequence (Q15139 whole entry): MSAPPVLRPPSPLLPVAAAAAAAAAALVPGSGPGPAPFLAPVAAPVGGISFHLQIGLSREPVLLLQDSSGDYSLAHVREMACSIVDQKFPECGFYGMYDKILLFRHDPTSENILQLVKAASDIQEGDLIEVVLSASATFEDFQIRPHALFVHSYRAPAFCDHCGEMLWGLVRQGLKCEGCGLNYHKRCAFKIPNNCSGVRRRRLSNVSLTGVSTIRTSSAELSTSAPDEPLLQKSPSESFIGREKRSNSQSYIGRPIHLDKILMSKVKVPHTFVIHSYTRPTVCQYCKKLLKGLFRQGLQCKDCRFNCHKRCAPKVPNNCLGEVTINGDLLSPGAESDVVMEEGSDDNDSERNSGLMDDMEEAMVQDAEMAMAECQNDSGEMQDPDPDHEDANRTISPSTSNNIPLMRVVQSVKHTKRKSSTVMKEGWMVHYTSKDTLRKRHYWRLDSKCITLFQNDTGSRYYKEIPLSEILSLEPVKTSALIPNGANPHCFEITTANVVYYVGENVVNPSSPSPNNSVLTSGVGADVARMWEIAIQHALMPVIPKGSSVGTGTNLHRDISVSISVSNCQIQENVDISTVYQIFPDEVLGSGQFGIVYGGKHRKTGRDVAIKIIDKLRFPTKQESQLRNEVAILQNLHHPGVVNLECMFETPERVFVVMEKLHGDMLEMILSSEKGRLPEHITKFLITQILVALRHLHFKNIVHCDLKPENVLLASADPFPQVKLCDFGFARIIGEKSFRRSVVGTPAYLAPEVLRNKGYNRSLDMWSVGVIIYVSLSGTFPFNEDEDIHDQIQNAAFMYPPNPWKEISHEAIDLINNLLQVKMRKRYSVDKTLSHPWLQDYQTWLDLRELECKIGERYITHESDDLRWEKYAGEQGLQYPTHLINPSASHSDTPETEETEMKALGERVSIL

O=C(O)c1ccc(-c2coc3ncc(-c4ccccc4)cc23)cc1Cl [SGC-CAMKK2-1N (UNC-YL-83)]
remaining binding at 1 µM (MAP4K2): 77% | remaining binding at 1 µM (PKMYT1): 94% | remaining binding at 1 µM (CAMK1): 62% | remaining binding at 1 µM (TNIK): 73% | remaining binding at 1 µM (PKN2): 83% | remaining binding at 1 µM (PLK4): 100% | remaining binding at 1 µM (PHKG1): 93% | remaining binding at 1 µM (PRP4): 100% | remaining binding at 1 µM (CDK9): 89% | remaining binding at 1 µM (PRKD1): 100% | remaining binding at 1 µM (PHKG2): 68% | remaining binding at 1 µM (MARK3): 61% | remaining binding at 1 µM (TNK2): 94% | remaining binding at 1 µM (RAF1): 79% | remaining binding at 1 µM (FGFR1): 100% | remaining binding at 1 µM (PRKR): 90% | remaining binding at 1 µM (ZAP70): 85% | remaining binding at 1 µM [1]: 100% | remaining binding at 1 µM (ADCK4): 100% | remaining binding at 1 µM [2]: 91%

Cc1cccc(-c2cnc3occ(-c4ccc(C(=O)O)c(C5CCCC5)c4)c3c2)c1 [SGC-CAMKK2-1 (YL-36)]
remaining binding at 1 µM (GSK3A): 92% | remaining binding at 1 µM [3]: 100% | remaining binding at 1 µM (FLT3): 80% | remaining binding at 1 µM (PRKCD): 100% | remaining binding at 1 µM (EPHA6): 100% | remaining binding at 1 µM (YANK1): 100% | remaining binding at 1 µM [4]: 100% | remaining binding at 1 µM [5]: 85%

Cc1cccc(-c2cnc3occ(-c4ccc(C(=O)O)c(C5CCCC5)c4)c3c2)c1 [Compound 5]
plasma concentration / in vivo PK (in words) [6]: poor in vivo PK
